The test system of assay [1] is Escherichia coli. Put plainly: Antimicrobial activity against Escherichia coli ATCC 25922 after 48 hrs by broth dilution technique. It counts as functional. The settings on record: ATCC 25922, 48 h. (In general: Broth dilution looks for growth in wells or tubes with falling amounts of substance.)
The subject of assay [2] is Klebsiella pneumoniae. Put plainly: Antimicrobial activity against Klebsiella pneumoniae after 48 hrs by broth dilution technique. It counts as functional.
Assay [3] concerns Staphylococcus aureus. Description: Antimicrobial activity against methicillin-sensitive Staphylococcus aureus ATCC 35556 after 48 hrs by broth dilution technique. In kind it is functional. The settings on record: ATCC 35556, 48 h.
For assay [4], the system named is Staphylococcus aureus. Put plainly: Antimicrobial activity against methicillin-resistant Staphylococcus aureus ATCC 43866 after 48 hrs by broth dilution technique. In kind it is functional. Conditions: ATCC 43866, 48 h.
The test system of assay [5] is Candida albicans. Description: Antimicrobial activity against Candida albicans after 48 hrs by agar dilution method. It counts as functional. For orientation: In agar dilution, organisms are placed on agar that contains the substance at set levels.
Assay [6] has as its system Mycobacterium tuberculosis. Put plainly: Antitubercular activity against Mycobacterium tuberculosis H37Rv after 7 days by Resazurin micro titer assay. In kind it is functional. Conditions: 168 h.
Assay [7] concerns Vero. Put plainly: Cytotoxicity against African green monkey Vero cells assessed as reduction in cell viability after 72 hrs by MTT assay. It counts as cell-based. The settings on record: Chlorocebus sabaeus. On the technique in general: Tetrazolium dyes change colour on reduction, which living cells bring about.
Assay [8] deals with Candida albicans. Description: Ratio of Amphotericin B MIC to compound MIC for Candida albicans after 48 hrs by broth dilution technique. It counts as functional.
Assay [9] deals with Escherichia coli. Description: Ratio of ciprofloxacin MIC to compound MIC for Escherichia coli ATCC 25922 after 48 hrs by broth dilution technique. In kind it is functional.
The subject of assay [10] is Staphylococcus aureus. Description: Ratio of ciprofloxacin MIC to compound MIC for methicillin-sensitive Staphylococcus aureus ATCC 35556 after 48 hrs by broth dilution technique. In kind it is functional.

Converted amounts (≈) assume the structure as drawn.

Drawing on ChEMBL document CHEMBL3351318, “Synthesis of novel 4-nitropyrrole-based semicarbazide and thiosemicarbazide hybrids with antimicrobial and anti-tubercular activity” (Bioorg Med Chem Lett, 2014), this text covers MIC, IC50 and Ratio for 12 compounds.

Usually MIC stands for the lowest concentration found to suppress growth. The term IC50 denotes the midpoint of a concentration-inhibition curve.

Consider `COc1ccc(NC(=S)NNC(=O)c2cc([N+](=O)[O-])c[nH]2)cc1`, for which the MIC in [1] is 1.56 µg/mL (≈ 4.65 µM); in [2], 3.12 µg/mL (≈ 9.32 µM); in assay [3], 1.56 µg/mL (≈ 4.65 µM); in assay [4], 3.12 µg/mL (≈ 9.32 µM); in [5] it was 3.12 µg/mL (≈ 9.32 µM); in [6] it was 1.3 µg/mL (≈ 3.88 µM). Also, the IC50 in assay [7] amounted to 331 µM. The Ratio in [8] was 4.

Turning to `O=C(NNC(=S)Nc1ccc(F)cc1)c1cc([N+](=O)[O-])c[nH]1`, the MIC in assay [1] was 1.56 µg/mL (≈ 4.83 µM); in assay [2], 3.12 µg/mL (≈ 9.67 µM); in assay [3] it was 1.56 µg/mL (≈ 4.83 µM); in [4] it was 3.12 µg/mL (≈ 9.67 µM); in [5], 3.12 µg/mL (≈ 9.67 µM); in assay [6] it was 0.56 µg/mL (≈ 1.73 µM). Also, the IC50 in assay [7] amounted to 331 µM. Moreover, the Ratio in assay [8] stood at 4.

`O=C(NNC(=S)Nc1ccccc1F)c1cc([N+](=O)[O-])c[nH]1`: the minimal inhibitory concentration (MIC) in [1] is 1.56 µg/mL (≈ 4.83 µM); in [2], 3.12 µg/mL (≈ 9.67 µM); in assay [3] it was 1.56 µg/mL (≈ 4.83 µM); in assay [4], 3.12 µg/mL (≈ 9.67 µM); in assay [5], 3.12 µg/mL (≈ 9.67 µM); in assay [6], 0.82 µg/mL (≈ 2.54 µM). The IC50 in [7] was determined as 471 µM. Moreover, the Ratio in [8] is on record as 4.

For `O=C(NNC(=S)Nc1ccc(Cl)cc1)c1cc([N+](=O)[O-])c[nH]1`, the MIC in assay [1] is 1.56 µg/mL (≈ 4.59 µM); in assay [2] it was 3.12 µg/mL (≈ 9.2 µM); in assay [3] it was 1.56 µg/mL (≈ 4.59 µM); in assay [4], 3.12 µg/mL (≈ 9.2 µM); in assay [5] it was 3.12 µg/mL (≈ 9.2 µM); in assay [6], 1.3 µg/mL (≈ 3.83 µM). In addition, the IC50 in assay [7] was 191 µM. Also, in assay [8], the Ratio is reported as 4.

As to `O=C(NNC(=S)NCCc1ccccc1)c1cc([N+](=O)[O-])c[nH]1`, the MIC in assay [1] stood at 3.12 µg/mL (≈ 9.37 µM); in [2], 6.25 µg/mL (≈ 18.7 µM); in [3] it was 1.56 µg/mL (≈ 4.68 µM); in assay [4], 3.12 µg/mL (≈ 9.37 µM); in assay [5] it was 3.12 µg/mL (≈ 9.37 µM); in assay [6] it was 3.9 µg/mL (≈ 11.7 µM). The IC50 in [7] turned out to be 281 µM. Moreover, the Ratio in assay [8] was determined as 4.

Regarding `O=C(NNC(=S)NCc1ccccc1)c1cc([N+](=O)[O-])c[nH]1`, the MIC in [1] was 3.12 µg/mL (≈ 9.79 µM); in assay [2], 6.25 µg/mL (≈ 19.6 µM); in assay [3], 3.12 µg/mL (≈ 9.79 µM); in assay [4], 6.25 µg/mL (≈ 19.6 µM); in [5], 3.12 µg/mL (≈ 9.79 µM); in [6], 7.3 µg/mL (≈ 22.9 µM). Further, the IC50 in assay [7] came to 397 µM. In addition, in assay [8], the Ratio is 4.

`O=C(NNC(=S)NC1CCCCC1)c1cc([N+](=O)[O-])c[nH]1`: the minimum inhibitory concentration (MIC) worked out at 1.56 µg/mL (≈ 5.01 µM) in assay [1]; 3.12 µg/mL (≈ 10 µM) in [2]; 1.56 µg/mL (≈ 5.01 µM) in assay [3]; 3.12 µg/mL (≈ 10 µM) in assay [4]; 3.12 µg/mL (≈ 10 µM) in [5]; 2.8 µg/mL (≈ 8.99 µM) in [6]. In addition, the IC50 in assay [7] came out at 204 µM. In assay [8], the Ratio is recorded as 4.

Turning to `Cc1ccccc1NC(=S)NNC(=O)c1cc([N+](=O)[O-])c[nH]1`, the MIC in [1] is 1.56 µg/mL (≈ 4.88 µM); in assay [2], 3.12 µg/mL (≈ 9.79 µM); in assay [3], 1.56 µg/mL (≈ 4.88 µM); in assay [4], 3.12 µg/mL (≈ 9.79 µM); in assay [5], 3.12 µg/mL (≈ 9.79 µM); in assay [6], 0.67 µg/mL (≈ 2.1 µM). In [7], the IC50 stood at 462 µM. In addition, the Ratio in assay [8] is 4.

Take `COc1cc(NC(=S)NNC(=O)c2cc([N+](=O)[O-])c[nH]2)cc(OC)c1OC`: the MIC in [1] turned out to be 1.56 µg/mL (≈ 3.95 µM); in assay [2], 3.12 µg/mL (≈ 7.9 µM); in assay [3], 3.12 µg/mL (≈ 7.9 µM); in assay [4], 6.25 µg/mL (≈ 15.8 µM); in [5], 3.12 µg/mL (≈ 7.9 µM); in assay [6], 2.7 µg/mL (≈ 6.83 µM). Moreover, the IC50 in [7] is 328 µM. In addition, the Ratio in assay [8] was found to be 4.

As to `Cn1cc([N+](=O)[O-])cc1C(=O)NNC(=S)NCCc1ccccc1`, the MIC is 0.78 µg/mL (≈ 2.25 µM) in assay [1]; 3.12 µg/mL (≈ 9 µM) in assay [2]; 0.39 µg/mL (≈ 1.12 µM) in assay [3]; 0.78 µg/mL (≈ 2.25 µM) in assay [4]; 0.78 µg/mL (≈ 2.25 µM) in assay [5]; 23 µg/mL (≈ 66.2 µM) in assay [6]. For the same compound, in [7], the IC50 is 404 µM. For the same compound, in assay [8], the Ratio is recorded as 4.

For the compound `Cc1ccccc1NC(=S)NNC(=O)c1cc([N+](=O)[O-])cn1C`, the MIC in assay [1] was found to be 0.39 µg/mL (≈ 1.17 µM); in assay [2] it was 1.56 µg/mL (≈ 4.68 µM); in assay [3], 0.39 µg/mL (≈ 1.17 µM); in [4] it was 0.78 µg/mL (≈ 2.34 µM); in assay [5] it was 0.78 µg/mL (≈ 2.34 µM); in assay [6], 11.9 µg/mL (≈ 35.7 µM). Besides, the IC50 in [7] turned out to be 471 µM. Moreover, the Ratio in assay [9], in [8] and in assay [10] was 4 in each case.

Take `COc1cc(NC(=S)NNC(=O)c2cc([N+](=O)[O-])cn2C)cc(OC)c1OC`: the MIC in assay [1] is 0.39 µg/mL (≈ 0.953 µM); in [2], 1.56 µg/mL (≈ 3.81 µM); in assay [3], 0.78 µg/mL (≈ 1.91 µM); in [4], 1.56 µg/mL (≈ 3.81 µM); in assay [5], 0.78 µg/mL (≈ 1.91 µM); in assay [6], 21.5 µg/mL (≈ 52.5 µM). In assay [7], the IC50 came to 392 µM. Besides, the Ratio in [9] and in [8] was 4 in each case.
